The values below come from US20230226198A1, “Artemisinin Derivatives” (DA ZEN THERANOSTICS, INC., priority 2019, published 2023).

Assay [1] has as its system human prostate tumors (22Rv1 cells). As to the kind of experiment: Human prostate tumor model, subcutaneous 22Rv1 tumors in nude mice. The class given is in vivo, athymic nude mice. As for the experimental part: Example 4 A/B: Human cancer cells are subcutaneously (s.c.) implanted (1×10^6) into 4- to 6-week-old athymic nude mice (National Cancer Institute). When tumor sizes in the mice reach between 1 and 6 mm in diameter as assessed by in vivo bioluminescence imaging or by palpation, mice are injected once or multiple times i.p. with the drug, e.g. DZ3a, DHA or o THAD. For mice bearing 22Rv1 tumors, DZ3a (2, 4, 8 and 16 mg/kg) or DHA (e.g. 4.7 mg/kg) is injected twice a week for 5.5 weeks. Whole body optical imaging is taken at 24 hours or as indicated using a Kodak Imaging Station 4000 MM equipped with fluorescent filter sets (excitation/emission, 800:850 nm), with a field of view of 120 mm in diameter, a frequency rate for NIR excitation light of 2 mW/cm^2, and the following camera settings; maximal gain, 2-2 binning, 1,024×1,024 pixel resolution, exposure time of 5 seconds. Live mice are alternatively/additionally imaged by an Olympus OV100 Whole Mouse Imaging System (excitation, 762 nm; emission, 800 nm; Olympus Corp.), containing a MT-20 light source (Olympus Biosystems) and DP70 CCD camera (Olympus). Before imaging, mice are anesthetized with isoflurane (2.5 units), and maintained in an anesthetized state during imaging. Alternatively, a THAD may be compared to DZ3a. […]

The test system of assay [2] is C4-2B MDVR cells. In words: Seahorse XF mitochondrial function (OCR/ECAR). The assay is classed as cell-based, human. To be noted: 5 uM. As for the experimental part: Example 5 C: To determine mitochondrial function of cancer cells (here C4-2B MDVR), the cells are treated with vehicle, DZ (5 uM), DHA (5 uM), and DZ-003 (5 uM) over 12 hours, and the oxygen consumption rate (OCR) from respiration and extracellular acidification rate (ECAR) from glycolysis of the live cells is determined in a metabolic chamber in a 24-well plate format using a Seahorse XF analyzer (Seahorse XFe24, Agilent, Calif.). Reagents (drugs/controls) are added to the wells just before start of the recording at time 0, and the effect of the drugs on the basal mitochondrial function is recorded by the analyzer for about 12 hours (720 minutes). All reagents used are Agilent reagents. Cells are seeded and cultured in Seahorse XF RPMI Medium, pH 7.4. The seeding rate is 8×10^5 for the cells to reach about 90% confluency within about 24 hours when the analysis is started. The protocol is essentially performed as per the standard protocol of the manufacturer, removing the medium, washing the cells once with XF Real-Time ATP Rate Assay Medium, then starting the measurement as per the instrument's pre-programming and subsequent real-time measurements of OCAR/ECAR. Preliminary experiments indicate that the THAD as described herein may have an increased effect compared to DZ3a.

The test system of assay [3] is C4-2 MDVR cells. As to the kind of experiment: JC-1 staining, mitochondrial membrane potential by flow cytometry. The class given is cell-based, human. To be noted: 5 uM, 16 h. How it is done: Example 5D: JC-1 staining and measuring JC-1 fluorescence is performed by flow cytometry to detect the ratio of green and red fluorescence. C4-2 MDVR cells are treated with vehicle (negative control), DHA (5 uM), and DZ-003 (5 uM) for 16 h, followed by JC-1 staining (2 uM) at 37° C. for 30 min, to determine the mitochondrial membrane potential by flow cytometry where JC-1 remains as a monomer in the cytosol that emits green fluorescence as an indication of depolarized membrane potential, and JC-1 forms aggregates in intact mitochondria that emits red fluorescence. […] Preliminary experiments indicate that the THAD as described herein may provide a similar or increased effect.

Assay [4] concerns mitochondria and lysosomes of C4-2B MDVR cells. As to the kind of experiment: Confocal microscopy of Mitotracker/Lysotracker staining (subcellular localization). The assay is classed as cell-based, human. How it is done: Subcellular localization (mitochondria, lysosomes) may be performed as follows: Uptake of DZ3a, THAD, controls or other dyes into mitochondria and lysosomes of cancer cells is determined by virtue of each compound constituting a dye or comprising a dye moiety. Cells are plated on live-cell imaging chambers (World Precision Instrument) overnight. Cells are exposed to the dyes at different concentrations, and dye uptake is evaluated by a Perkin-Elmer Ultraview ERS spinning disc confocal microscope mounted on a Zeiss Axiovert 200 m inverted microscope equipped with a 37° C. stage warmer, incubator, and constant CO2 perfusion. A 60× or 100× Zeiss oil objective (numerical aperture, 1.4) is used for live cell images, and a Z-stack is created using the attached piezoelectric z-stepper motor. The 633-nm laser line of an […] (set at 60% power) is used to excite the dye. Light emission at 650 nm is detected and found to correlate directly with the dye concentrations in the cells. For comparative studies, the exposure time and laser intensity are kept identical for accurate intensity measurements. Pixel intensity is quantified using Metamorph 6.1 (Universal Imaging), and the mean pixel intensity is generated as gray level using the Region Statistics feature on the software. […]

Assay [5] relates to MDVR cells. As to the kind of experiment: Monobromobimane (mBBr) staining, cellular GSH levels. The assay is classed as cell-based, human. Particulars: 8 h, listed as DZ-003. How it is done:
Example 5G: Cancer cells (here MDVR) are treated with DZ1, DHA and/or a THAD (e.g. 6 uM each) for 8 h, followed by monobromobimane (mBBr) staining at 40 uM for 30 min at 37° C., and analyzed with flow cytometry to determine the cellular GSH levels. Flow cytometry analysis of mBBr fluorescence (green) is performed as described in example 5E above. Preliminary experiments indicate that the THAD as described herein may provide a similar or increased effect.

The subject of assay [6] is MDVR cells. As to the kind of experiment: C11-BODIPY (lipid peroxidation) and MitoSox (mitochondrial ROS) flow cytometry. The class given is cell-based, human. Particulars: 8 h. How it is done:
Example 5F: Cancer cells (here MDVR) are treated with DZ1, DHA and DZ-003 for 8 h, followed by C11-BODIPY staining for 30 min at 37° C. (lipid peroxidation) or MitoSox staining for 10 min at 37° C. […] Flow cytometry analysis is performed as described in example 5E above. […] Preliminary experiments indicate that the THAD as described herein may provide a similar or increased effects.

“Also recorded” adds a separate entry of the source.

As for `C[C@@H]1CC[C@H]2[C@@H](C)C(OC(=O)CCCCCN3/C(=C/C=C4\CCCC(/C=C/C5=[N+](CCCCS(=O)(=O)[O-])c6ccccc6C5(C)C)=C4Cl)C(C)(C)c4ccccc43)O[C@@H]3OC4(C)CC[C@@H]1[C@]32OO4` (stereo in doubt) [DZ3a], the “inhibition of tumor volume increase” value in assay [1] (DZ-DHA-monoester 2 to 16 mg/kg, DHA 4.7 mg/kg, i.p. twice a week for 5.5 weeks, versus vehicle) is reported as “similarly inhibit increase in tumor volume compared to the neg. control”. In addition, the “tumor inhibition, lowest dose versus higher doses” value in assay [1] (about 2 mg/kg versus higher doses up to 16 mg/kg) is on record as “shows better tumor inhibition than other higher doses”. In assay [2], the “time at which lowering of OCR starts” value is not above 250 min and the “time until which OCR continues to lower before sustained lowered OCR” value is on record as “about 500 minutes”. For the same compound, the “lowering of OCR (in words)” value in assay [2] (over 12 hours) is reported as “can greatly lower the mitochondrial oxygen consumption rate”. Moreover, the “mitochondrial oxygen consumption rate (OCR) after treatment” value in assay [2] (over 12 hours, from about 700-800 pmol/min) is “less than 300 pmol/min”. In addition, in assay [3], the “mitochondrial membrane potential (JC-1 fluorescence)” value was “induces depolarization of mitochondrial membrane potential”. Further, in assay [4], the “co-localization with mitochondria and lysosomes” value was “co-localizes with mitochondria and lysosomes; also recorded: exclusive targeting to mitochondria and lysosomes”. Also, the “cellular GSH levels (mBBr fluorescence)” value in assay [5] is “decreases cellular antioxidant GSH levels; also recorded: Decreased cellular GSH levels”. Also, the “lipid peroxidation (C11-BODIPY fluorescence)” value in assay [6] is “induces lipid peroxidation”.
